Results taken from patent US3989837A, “Pharmaceutical compositions” (Chinoin Gyogyszer-es Vegyeszeti Termekek Gyara RT, priority 1972, dated 1976).
Where two headings read alike, the source gives them in different places.

Experiments:
[1] = system: kaoline oedema; assay: Rat paw oedema, kaoline (Table 4'); format: in vivo; settings: for Effect % (average), inhibition of kaoline oedema / Effect %, inhibition of kaoline oedema: female rats; for Effect % (average), inhibition of kaoline oedema: average of repeated tests
Experimental: (§1) Inflammatory plantar oedema was provided by the subplantar injection of 0.1 ml. of 5% kaoline or 0.5% carrageenine on female rats each weighing 110 to 130 g., starved for 24 hours. The dorsoplantar diameter of the test animals was measured with a double-armed instrument prior to the administration of the phlogistic (basic value) and at regular intervals (at 2, 3.5 and 5 hours for kaoline and at 1.5, 3 and 4.5 hours for carrageenine) after the administration of the phlogistic. […] The treatment was always carried out 1 hour before the administration of the phlogistic. The animals belonging to the control group received suspending agent only. In order to ensure a uniform hydration grade, 1 ml. of tap water was administered through a stomach tube to the animals simultaneously with the administration of the active agent. During the test period the animals were allowed to consume water ad libitum.
(§2) The effect was calculated from the difference of the increase in paw diameter observed in the treated and control groups. The daga are given as percentage efficiacy.
(§3) The significance level was examined by Student's t test. The significance levels are marked by asterisks; the values of the repeated tests are given separately.

[2] = system: carrageenine oedema; assay: Rat paw oedema, carrageenine (Table 5'); format: in vivo; settings: for Effect %, inhibition of carrageenine oedema: female rats
Experimental: as §1, §2, §3

[3] = system: rats; assay: Ulcerogeneous action on rats, comparison with Indomethacine (Table 3'); settings: for Animals having lesions on the intestines / Survivals / Ulcer number: male rats, 5 days
[4] = system: cotton granuloma; assay: Cotton granuloma, comparison with Indomethacine (Table 6); format: in vivo, rat; settings: for Effect %, cotton granuloma: male rats, 7 days
Experimental: Two cotton beads, each weighing 23 to 27 mg., were implanted under the dorsal skin of the animals in aether narcosis, under semisterile conditions, along both sides of the vertebral column. The compound under examination was administered twice a day for 7 days in oral dosages of 0.2 ml./100 g. body weight, in a suspension formed with 1% methyl cellulose. On the 8th day the animals were killed by etheral overnarcosis, the granulomes were removed, dried at 50° C for 5 hours, and then weighed. The animals belonging to the control group were treated similarly, but they received suspending agent only. The percentage efficiacy was calculated from the weight differences of the granuloma tissues observed for the treated and control groups. The significance was examined by the t test.

[5] = Toxicity on mice after oral administration, single dosage (Table 1'); format: in vivo; settings: mouse, in vivo, po, male mice, p.o., 168 hours
Experimental: (§4) The tests were carried out on male mice weighing 25 to 30 g., not starved previously. The compounds were administered in a dosage of 0.2 ml. of suspension per 10 g. body weight. The individual dosages indicated in Table 1' were administered to 10 mice each. The given amount of active agent was added in a single dosage, and the animals were dept under observation for 7 days (= 168 hours). The number of deceased animals was recorded daily.
(§5) The LD50 values were calculated according to the Litchfied-Wilcoxon method, by also taking into account the number of animals perished within 168 hours from the administration.

[6] = system: mice; assay: as above; format: in vivo; settings: for Perished animals/treated animals: male mice
Experimental: as §4, §5

[7] = system: writhing syndrome; assay: Writhing syndrome, comparison with Indomethacine (Table 7); format: in vivo, mouse; settings: for Effect % average, writhing: male mice
Experimental: The tests were carried out on male mice each weighing 15 to 18 g., starved for 16 hours prior to treatment. 0.1 ml./10 g. body weight of 1% acetic acid solution was injected intraperitoneally to the animals. The sterile inflammation occurred on the action of acetic acid provoked a characteristic syndrome (writhing). The number of writhings was counted during an observation period of 20 minutes, starting 15 minutes after the administration of acetic acid. The substance to be tested was administered orally as a suspension, in a dosage of 0.1 ml./10 g. body weight 2 to 4 hours before the acetic acid injection. The average number of writhings observed for the treated animals was compared to that observed in the control group, and the percentage inhibition was calculated from the difference.

Question: What does the source list for `COc1ccc2c(c1)c(CC(=O)OCC(Cl)(Cl)Cl)c(C)n2C(=O)c1ccc(Cl)cc1` [Example 5, 1-(p-chlorobenzoyl)-2-methyl-5-methoxy-indol-3-yl-acetic-acid trichloroethyl ester]?
Answer: Effect % (average), inhibition of kaoline oedema ([1]; p.o. 13.67 (10) mg./kg., 2 hours): 10.2%; Effect % (average), inhibition of kaoline oedema ([1]; p.o. 13.67 (10) mg./kg., 3.5 hours): 15.8%; Effect % (average), inhibition of kaoline oedema ([1]; p.o. 13.67 (10) mg./kg., 5 hours): 18.8%; Effect % (average), inhibition of kaoline oedema ([1]; p.o. 34.17 (25) mg./kg., 2 hours): 12.0%; Effect % (average), inhibition of kaoline oedema ([1]; p.o. 34.17 (25) mg./kg., 3.5 hours): 22.1%; Effect % (average), inhibition of kaoline oedema ([1]; p.o. 34.17 (25) mg./kg., 5 hours): 27.3%; Effect %, inhibition of kaoline oedema ([1]; p.o. 68.35 (50) mg./kg., 2 hours): 21.9%; Effect %, inhibition of kaoline oedema ([1]; p.o. 68.35 (50) mg./kg., 3.5 hours): 30.2%; Effect %, inhibition of kaoline oedema ([1]; p.o. 68.35 (50) mg./kg., 5 hours): 33.3%; Effect %, inhibition of kaoline oedema ([1]; p.o. 136.7 (100) mg./kg., 2 hours): 26.9%; Effect %, inhibition of kaoline oedema ([1]; p.o. 136.7 (100) mg./kg., 3.5 hours): 41.1%; Effect %, inhibition of kaoline oedema ([1]; p.o. 136.7 (100) mg./kg., 5 hours): 37.9%; dosage inhibiting oedema, times higher than Indomethacine ([1]; kaoline oedema, molar equivalents compared): about 2.5 times; antiphlogistic effect, times weaker than Indomethacine ([1]; summary of the comparison): about 2.5 times; dosage inhibiting oedema, times higher than Indomethacine ([2]; carrageenine oedema, molar equivalents compared): about 2.5 times; Effect %, inhibition of carrageenine oedema ([2]; p.o. 13.67 (10) mg./kg., 1.5 hours): 9.8%; Effect %, inhibition of carrageenine oedema ([2]; p.o. 13.67 (10) mg./kg., 3 hours): 15.8%; Effect %, inhibition of carrageenine oedema ([2]; p.o. 13.67 (10) mg./kg., 4.5 hours): 16.0%; Effect %, inhibition of carrageenine oedema ([2]; p.o. 34.17 (25) mg./kg., 1.5 hours): 10.8%; Effect %, inhibition of carrageenine oedema ([2]; p.o. 34.17 (25) mg./kg., 3 hours): 18.3%; Effect %, inhibition of carrageenine oedema ([2]; p.o. 34.17 (25) mg./kg., 4.5 hours): 21.9%; Effect %, inhibition of carrageenine oedema ([2]; p.o. 68.35 (50) mg./kg., 1.5 hours): 14.8%; Effect %, inhibition of carrageenine oedema ([2]; p.o. 68.35 (50) mg./kg., 3 hours): 19.9%; Effect %, inhibition of carrageenine oedema ([2]; p.o. 68.35 (50) mg./kg., 4.5 hours): 28.5%; Animals having lesions on the intestines ([3]; oral 27.3 (20) mg./kg.): 10.5%; Survivals ([3]; oral 27.3 (20) mg./kg.): 19; Ulcer number ([3]; oral 27.3 (20) mg./kg.): 0; Animals having lesions on the intestines ([3]; oral 54.7 (40) mg./kg.): 80%; Survivals ([3]; oral 54.7 (40) mg./kg.): 15; Ulcer number ([3]; oral 54.7 (40) mg./kg.): 0.27; frequency of occurrence of intestinal lesions compared with Indomethacine ([3]; rats, oral, fivefold dosage): doubled; lesions on intestines compared with Indomethacine ([3]; rats, oral, fivefold dosage): far more severe; extent of perishment, lower than that caused by Indomethacine 8 mg./kg. ([3]; rats, oral, fivefold dosage with respect to Indomethacine (8 mg./kg.)): 50%; lesions on the mucous membrane of the stomach ([3]; rats, oral, Indomethacine 4 and 8 mg./kg., […]): slightly more severe lesions; effect on cotton granuloma compared with Indomethacine ([4]; even when added in a twofold dosage): lower than that of Indomethacine; Effect %, cotton granuloma ([4]; oral daily 5.5 (4) mg./kg., p 0.01): 19.5%; Effect %, cotton granuloma ([4]; oral daily 11 (8) mg./kg., p 0.001): 24.8%; LD50 at 168 h ([5]; equivalent amounts of Indomethacine, read-out: LD50 as equivalent amount of Indomethacine): 1570 mg/kg; LD50 at 168 h ([5]; read-out: LD50): 2150 mg/kg; therapeutical width compared with Indomethacine ([6]; considering the toxicity values): far more favorable than that of Indomethacine; Perished animals/treated animals ([6]; oral 1367 (1000) mg./kg., 24 h): 0/10; Perished animals/treated animals ([6]; oral 1367 (1000) mg./kg., 48 h): 0/10; Perished animals/treated animals ([6]; oral 1367 (1000) mg./kg., 72 h): 0/10; Perished animals/treated animals ([6]; oral 1367 (1000) mg./kg., 96 h): 0/10; Perished animals/treated animals ([6]; oral 1367 (1000) mg./kg., 120 h): 0/10; Perished animals/treated animals ([6]; oral 1367 (1000) mg./kg., 144 h): 0/10; Perished animals/treated animals ([6]; oral 1367 (1000) mg./kg., 168 h): 0/10; Perished animals/treated animals ([6]; oral 2050 (1500) mg./kg., 24 h): 0/10; Perished animals/treated animals ([6]; oral 2050 (1500) mg./kg., 48 h): 0/10; Perished animals/treated animals ([6]; oral 2050 (1500) mg./kg., 72 h): 0/10; Perished animals/treated animals ([6]; oral 2050 (1500) mg./kg., 96 h): 0/10; Perished animals/treated animals ([6]; oral 2050 (1500) mg./kg., 120 h): 0/10; Perished animals/treated animals ([6]; oral 2050 (1500) mg./kg., 144 h): 0/10; Perished animals/treated animals ([6]; oral 2050 (1500) mg./kg., 168 h): 1/10; Perished animals/treated animals ([6]; oral 2734 (2000) mg./kg., 24 h): 0/10; Perished animals/treated animals ([6]; oral 2734 (2000) mg./kg., 48 h): 0/10; Perished animals/treated animals ([6]; oral 2734 (2000) mg./kg., 72 h): 2/10; Perished animals/treated animals ([6]; oral 2734 (2000) mg./kg., 96 h): 2/10; Perished animals/treated animals ([6]; oral 2734 (2000) mg./kg., 120 h): 4/10; Perished animals/treated animals ([6]; oral 2734 (2000) mg./kg., 144 h): 6/10; Perished animals/treated animals ([6]; oral 2734 (2000) mg./kg., 168 h): 6/10; Perished animals/treated animals ([6]; oral 3417 (2500) mg./kg., 24 h): 0/10; Perished animals/treated animals ([6]; oral 3417 (2500) mg./kg., 48 h): 1/10; Perished animals/treated animals ([6]; oral 3417 (2500) mg./kg., 72 h): 1/10; Perished animals/treated animals ([6]; oral 3417 (2500) mg./kg., 96 h): 3/10; Perished animals/treated animals ([6]; oral 3417 (2500) mg./kg., 120 h): 4/10; Perished animals/treated animals ([6]; oral 3417 (2500) mg./kg., 144 h): 6/10; Perished animals/treated animals ([6]; oral 3417 (2500) mg./kg., 168 h): 7/10; Perished animals/treated animals ([6]; oral 4101 (3000) mg./kg., 24 h): 0/10; Perished animals/treated animals ([6]; oral 4101 (3000) mg./kg., 48 h): 1/10; Perished animals/treated animals ([6]; oral 4101 (3000) mg./kg., 72 h): 3/10; Perished animals/treated animals ([6]; oral 4101 (3000) mg./kg., 96 h): 4/10; Perished animals/treated animals ([6]; oral 4101 (3000) mg./kg., 120 h): 5/10; Perished animals/treated animals ([6]; oral 4101 (3000) mg./kg., 144 h): 7/10; Perished animals/treated animals ([6]; oral 4101 (3000) mg./kg., 168 h): 7/10; Effect % average, writhing ([7]; p.o. 6.8 (5) mg./kg., 2 hours): 24.8%; Effect % average, writhing ([7]; p.o. 6.8 (5) mg./kg., 4 hours): 19.3%; Effect % average, writhing ([7]; p.o. 17.1 (12.5) mg./kg., 2 hours): 56.1%; Effect % average, writhing ([7]; p.o. 17.1 (12.5) mg./kg., 4 hours): 53.5%; dosage provoking the same analgesic effect, times higher than Indomethacine ([7]; writhing, ratio refers to molar equivalents): 2.5 times
